Starred links: 1 amine or outer side, 2 acyl side, 3 side chain; linkers in the order of their positions; H or OH if unused. Positions of bridges follow the written chain, without caps; N, C: chain ends. Non-standard residues stand in square brackets, D forms with d. Residues, ends and D or L forms follow the SMILES beside them. ξ: configuration not given here. X5 = O=C([C@@H]1[C@@H]2CCCC[C@@H]2CN1[*:1])[*:2]; X2 = C[C@@](CCCCC=[*:3])(N[*:1])C(=O)[*:2]; Leu(4,5-dehydro) = C=C(C)C[C@H](N)C(=O)O; X4 = C=C(C)C[C@@H](N[*:1])C(=O)[*:2]; d(tBuAla) = CC(C)(C)C[C@@H](N)C(=O)O; dVal(3-OH) = CC(C)(O)[C@@H](N)C(=O)O; Val(3-OH) = CC(C)(O)[C@H](N)C(=O)O; cisHyp = O=C(O)[C@@H]1C[C@H](O)CN1; tBuAla = CC(C)(C)C[C@H](N)C(=O)O; R5 = C=CCCC[C@@](C)(N)C(=O)O; 4Amb = NCc1ccc(C(=O)O)cc1; ξP = O=C(O)C1CCCN1
Columns and labels:
[1] = Lipophilicity of peptides, logP(oct/wat); format: physicochemical
Method: (§1) The solubilities of the synthesized compounds were determined experimentally (Supplementary Table 2). Most compounds were highly soluble at a 1 mM concentration; however, some compounds tended to form aggregates. These compounds were excluded from further studies. In addition, we experimentally determined the lipophilicity of each compound, logP(oct/wat)=log(soluteoct/solutewat ), which is the partition coefficient of a compound between aqueous (water) and lipophilic (octanol) phases (Supplementary Table 2).
Lipophilicity of peptides. Two separate solutions were obtained: an aqueous phosphate buffer with saturated n-octanol, and an n-octanol solution with saturated phosphate buffer. Peptides were then dissolved and diluted in the phosphate buffer. Different partitions were then made with different n-octanol to water ratio before shaking for an hour at room temperature. The aqueous phase and n-octanol were allowed to equilibrate, and each phase was extracted and analyzed for peptide concentrations. The ratio of peptide concentration in n-octanol to that in water is expressed as log(P).

[2] = target: EB3 interactions with IP3R3-GFP (Homo sapiens, UniProt Q9UPY8); assay: Competitive binding: inhibition of EB3 interaction with IP3R3-GFP in vitro; format: biochemical; details: 250 nM
Text: We tested the efficacy of twenty-three compounds in inhibiting EB3 interactions with IP3R3-GFP via an in vitro approach developed by us[12],[13]. […] Guided by NMR studies, we predicted the binding pose of 109 to EB3 via AutoDock Vina[13],[24],[25].

[3] = Aggregation / solubility at 1 mM; format: physicochemical; details: summary calls it solubility at 1mM
Method: as §1

[4] = system: CD1 mice, cecal ligation and puncture; assay: Polymicrobial sepsis model (CLP); format: in vivo, mouse; details: CLP 18-gauge; monotherapy: VT-109 0.5 µmol/kg bw or enrofloxacin 5 mg/kg bw

EB3 interactions with IP3R3-GFP, sequence (Q9UPY8 whole entry): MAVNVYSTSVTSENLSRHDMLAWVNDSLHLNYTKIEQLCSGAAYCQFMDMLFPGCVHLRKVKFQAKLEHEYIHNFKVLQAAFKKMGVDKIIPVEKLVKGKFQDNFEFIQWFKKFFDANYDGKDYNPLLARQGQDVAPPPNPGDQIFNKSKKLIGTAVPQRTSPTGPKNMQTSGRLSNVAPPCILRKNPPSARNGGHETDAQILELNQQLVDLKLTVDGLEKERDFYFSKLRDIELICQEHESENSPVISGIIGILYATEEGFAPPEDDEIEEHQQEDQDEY

Row | SMILES | logD [1] | inhibition at 0.25 µM [2] | Aggregation at 1mM [3] | survival [4]
1 | CC[C@H](C)[C@@H]1NC(=O)[C@H]([C@@H](C)O)NC(=O)[C@@H]2CCCN2C(=O)[C@H]([C@@H](C)CC)NC(=O)[C@H](CCC(=O)O)NC(=O)[C@H]([C@@H](C)O)NC(=O)[C@H](Cc2ccccc2)NC1=O [compound 012, 3-((3S,6S,9S,12S,15S,18S,23aS)-9-benzyl-6,18-di((S)-sec-butyl)-3,12-bis((R)-1-hydroxyethyl)-1,4,7,10,13,16,19-heptaoxodocosahydro-1H-pyrrolo[1,2-a][1,4,7,10,13,16,19]heptaazacyclohenicosin-15-yl)propanoic acid.] (cyclo(EIPTIFT)) | -0.04 | 49% | – | –
2 | CC[C@H](C)[C@@H]1NC(=O)[C@H]([C@@H](C)O)NC(=O)[C@@H]2CCCN2C(=O)[C@H]([C@@H](C)CC)NC(=O)[C@H](CCC(=O)O)NC(=O)[C@H]([C@@H](C)O)NC(=O)[C@H](Cc2ccccc2)NC(=O)CNC(=O)CNC(=O)[C@H]([C@@H](C)O)NC(=O)CC[C@@H](C(=O)O)NC(=O)[C@@H]2CCCN2C(=O)[C@H](CC(C)C)NC1=O [compound 013, (6S,9S,12S,15S,24S,29S,31aS,37S,40S,43S,45aS)-15-benzyl-6,40-di((S)-sec-butyl)-9-(2-carboxyethyl)-12,24,43-tris((R)-1-hydroxyethyl)-37-isobutyl-5,8,11,14,17,20,23,26,31,36,39,42,45-tridecaoxotetratetracontahydro-5H-dipyrrolo[2,1-c:2',1'-o][1,4,7,10,13,16,19,22,25,28,31,34,37]tridecaazacyclohentetracontine-29-carboxylic acid] (TGGFTEIPTILPE-OH; lactam N-13) | -0.27 | 51% | – | –
3 | CC[C@H](C)[C@H](NC(=O)[C@@H](NC(=O)[C@@H]1CCCN1C(=O)[C@@H](NC(=O)c1ccc(CNC(=O)[C@H](NC(=O)[C@@H](N)Cc2ccccc2)C(C)(C)O)cc1)[C@@H](C)CC)[C@@H](C)O)C(=O)O [compound 021, (4-(((R)-2-((S)-2-amino-3-phenylpropanamido)-3-hydroxy-3-methylbutanamido)methyl)benzoyl)-L-isoleucyl-L-prolyl-L-threonyl-L-isoleucine] (H-F[dVal(3-OH)][4Amb]IPTI-OH) | -0.24 | 35% | weak signal | –
4 | CC[C@@H](C)[C@H]1NC(=O)[C@H]([C@@H](C)O)NC(=O)C2CCCN2C(=O)[C@@H](CC(C)(C)C)NC(=O)[C@](C)(NC(=O)[C@@H](CCC(=O)O)NC(=O)[C@H](NC(=O)[C@H](N)Cc2ccccc2)[C@H](C)O)CCC/C=C\CCCC[C@@](C)(C(=O)N[C@@H](CCCNC(=N)N)C(=O)O)NC1=O (stereo partly drawn) [compound 028, (4R)-4-((2R,3S)-2-((R)-2-amino-3-phenylpropanamido)-3-hydroxybutanamido)-5-(((3S,6R,9S,19R,22R,Z)-6-((R)-sec-butyl)-9-(((S)-1-carboxy-4-guanidinobutyl)carbamoyl)-3-((R)-1-hydroxyethyl)-9,19-dimethyl-22-neopentyl-1,4,7,20,23-pentaoxo-2,3,4,5,6,7,8,9,10,11,12,13,16,17,18,19,20,21,22,23,25,26,27,27a-tetracosahydro-1H-pyrrolo[1,2-d][1,4,7,10,13]pentaazacyclopentacosin-19-yl)amino)-5-oxopentanoic acid] (H-[dF][dT][dE][R5][d(tBuAla)][ξP]T[dI][X2]R-OH; staple (Z) 4-9) | -1 | 45% | 1.39 | –
5 | CCN1CCN(c2cc3c(cc2F)c(=O)c(C(=O)O)cn3C2CC2)CC1 [enrofloxacin, reference compound] | – | – | – | neither antibiotics nor VT-109 monotherapy (0.5 µmol/kg bw) significantly improved survival

More lines, main results first:

Row | logD [1] | inhibition at 0.25 µM [2] | Aggregation at 1mM [3] | SMILES | survival [4]
6 | -0.81 | 39% | 0.35 | CC[C@H](C)[C@H](NC(=O)[C@@H](NC(=O)[C@@H]1CCCN1C(=O)[C@@H](NC(=O)[C@H](CCC(=O)O)NC(=O)[C@@H](NC(=O)[C@H](N)Cc1ccccc1)[C@@H](C)O)[C@@H](C)CC)[C@@H](C)O)C(=O)O [compound 004, (S)-4-((2S,3R)-2-((R)-2-amino-3-phenylpropanamido)-3-hydroxybutanamido)-5-(((2S,3S)-1-((S)-2-(((2S,3R)-1-(((1S,2S)-1-carboxy-2-methylbutyl)amino)-3-hydroxy-1-oxobutan-2-yl)carbamoyl)pyrrolidin-1-yl)-3-methyl-1-oxopentan-2-yl)amino)-5-oxopentanoic acid] (H-[dF]TEIPTI-OH) | –
7 | -0.3 | 48% | 0.18 | CC[C@H](C)[C@H](NC(=O)[C@@H](NC(=O)[C@@H]1CCCN1C(=O)[C@H](CC(C)(C)C)NC(=O)[C@@H](CCC(=O)O)NC(=O)[C@@H](NC(=O)[C@@H](N)Cc1ccccc1)C(C)(C)O)[C@@H](C)O)C(=O)O [compound 016, (R)-4-((S)-2-((S)-2-amino-3-phenylpropanamido)-3-hydroxy-3-methylbutanamido)-5-(((S)-1-((S)-2-(((2S,3R)-1-(((1S,2S)-1-carboxy-2-methylbutyl)amino)-3-hydroxy-1-oxobutan-2-yl)carbamoyl)pyrrolidin-1-yl)-4,4-dimethyl-1-oxopentan-2-yl)amino)-5-oxopentanoic acid] (H-F[Val(3-OH)][dE][tBuAla]PTI-OH) | –
8 | -1 | 51% | weak signal | C=C(C)C[C@H](NC(=O)[C@H](CCC(=O)O)NC(=O)[C@@H](NC(=O)[C@@H](N)Cc1ccccc1)[C@@H](C)O)C(=O)N1CCC[C@H]1C(=O)N[C@H](C(=O)N[C@H](C(=O)O)[C@@H](C)CC)[C@@H](C)O [compound 019, (S)-4-((2S,3R)-2-((S)-2-amino-3-phenylpropanamido)-3-hydroxybutanamido)-5-(((S)-1-((S)-2-(((2S,3R)-1-(((1S,2S)-1-carboxy-2-methylbutyl)amino)-3-hydroxy-1-oxobutan-2-yl)carbamoyl)pyrrolidin-1-yl)-4-methyl-1-oxopent-4-en-2-yl)amino)-5-oxopentanoic acid] (H-FTE[Leu(4,5-dehydro)]PTI-OH) | –
9 | -0.89 | 40% | weak signal | C=C(C)C[C@H](NC(=O)[C@H](CCC(=O)O)NC(=O)[C@H](NC(=O)[C@H](N)Cc1ccccc1)C(C)(C)O)C(=O)N1CCC[C@H]1C(=O)N[C@H](C(=O)N[C@H](C(=O)O)[C@@H](C)CC)[C@@H](C)O [compound 036, (S)-4-((R)-2-((R)-2-amino-3-phenylpropanamido)-3-hydroxy-3-methylbutanamido)-5-(((S)-1-((S)-2-(((2S,3R)-1-(((1S,2S)-1-carboxy-2-methylbutyl)amino)-3-hydroxy-1-oxobutan-2-yl)carbamoyl)pyrrolidin-1-yl)-4-methyl-1-oxopent-4-en-2-yl)amino)-5-oxopentanoic acid] (H-[dF][dVal(3-OH)]E[Leu(4,5-dehydro)]PTI-OH) | –
10 | -0.19 | 36% | 0.35 | CC[C@H](C)[C@H](NC(=O)[C@@H](NC(=O)[C@@H]1C[C@H](O)CN1C(=O)[C@H](CC(C)(C)C)NC(=O)[C@H](CCC(=O)O)NC(=O)[C@H](NC(=O)[C@@H](N)Cc1ccccc1)C(C)(C)O)[C@@H](C)O)C(=O)O [compound 038, (S)-4-((R)-2-((S)-2-amino-3-phenylpropanamido)-3-hydroxy-3-methylbutanamido)-5-(((S)-1-((2S,4S)-2-(((2S,3R)-1-(((1S,2S)-1-carboxy-2-methylbutyl)amino)-3-hydroxy-1-oxobutan-2-yl)carbamoyl)-4-hydroxypyrrolidin-1-yl)-4,4-dimethyl-1-oxopentan-2-yl)amino)-5-oxopentanoic acid] (H-F[dVal(3-OH)]E[tBuAla][cisHyp]TI-OH) | –
11 | 0.67 | 50% | – | CC[C@H](C)[C@H](NC(=O)[C@H](NC(=O)[C@@H]1[C@@H]2CCCC[C@@H]2CN1C(=O)[C@H](CC(C)(C)C)NC(=O)[C@H](CCC(=O)O)NC(=O)[C@H](NC(=O)[C@@H](N)Cc1ccccc1)C(C)(C)O)C(C)(C)O)C(=O)O [compound 040, (S)-4-((R)-2-((S)-2-amino-3-phenylpropanamido)-3-hydroxy-3-methylbutanamido)-5-(((S)-1-((1S,3aS,7aR)-1-(((R)-1-(((1S,2S)-1-carboxy-2-methylbutyl)amino)-3-hydroxy-3-methyl-1-oxobutan-2-yl)carbamoyl)octahydro-2H-isoindol-2-yl)-4,4-dimethyl-1-oxopentan-2-yl)amino)-5-oxopentanoic acid.] (H-F[dVal(3-OH)]E[tBuAla][X5][dVal(3-OH)]I-OH) | –
12 | -0.71 | 52% | – | C=C(C)C[C@H](NC(=O)[C@@H](NC(=O)[C@@H]1CCCN1C(=O)[C@@H](CC(=C)C)NC(=O)[C@H](CCC(=O)O)NC(=O)[C@H](NC(=O)[C@H](N)Cc1ccccc1)C(C)(C)O)[C@@H](C)O)C(=O)O [compound 049, (S)-2-((2S,3R)-2-((S)-1-((R)-2-((S)-2-((R)-2-((R)-2-amino-3-phenylpropanamido)-3-hydroxy-3-methylbutanamido)-4-carboxybutanamido)-4-methylpent-4-enoyl)pyrrolidine-2-carboxamido)-3-hydroxybutanamido)-4-methylpent-4-enoic acid.] (H-[dF][dVal(3-OH)]E[X4]PT[Leu(4,5-dehydro)]-OH) | –

From article PMC12627862, “Therapeutic targeting of endothelial calcium signaling accelerates the resolution of lung injury” (Signal Transduction and Targeted Therapy, 2025)
